# Key:
# [1] = tested on: C-myc in KMS.12.BM cells; assay: KMS.12.BM C-myc ELISA Assay; type: cell-based; conditions: Homo sapiens, 2 h
# Procedure: KMS.12.BM C-myc ELISA Assay
# KMS.12.BM cell line (human myeloma) was purchased from JCRB (Osaka, Japan) and maintained in RPMI with 10% FBS culture medium. To measure the C-myc inhibitory activity of the compounds, the KMS.12.BM cells are plated in the RPMI culture medium at 75000 cells/well/per 200 μL into a 96-well flat bottom polystyrene tissue culture plate (Corning through VWR, NJ), in the presence or absence of a concentration range of test compounds. After 2 h, cells are pelleted and lysed with Cell Extraction Buffer (BioSource, Carlsbad, Calif.) in the presence of protease inhibitors (Life Technologies, Grand Island, N.Y. and Sigma, St Louis, Mo.). Clarified lyses are tested in a C-myc commercial ELISA (Life Technologies, Grand Island, N.Y.). Compound inhibition is determined relative to cells cultured with no drug and the IC50 reported as the compound concentration required for 50% C-myc inhibition.
# [2] = tested on: KMS.12.BM cell line (human myeloma); assay: KMS.12.BM Cell Viability Assay; type: cell-based; conditions: 72 h, KMS.12.BM cells, 3 days, Cell Titer-GLO, read-out: KMS cellular IC50
# Procedure: Example B1: KMS.12.BM Cell Viability Assay
# KMS.12.BM cell line (human myeloma) was purchased from JCRB (Osaka, Japan) and maintained in RPMI with 10% FBS culture medium. To measure the cytotoxic activity of the compounds through ATP quantitation, the KMS.12.BM cells are plated in the RPMI culture medium at 5000 cells/well/per 100 μL into a 96-well polystyrene clear black tissue culture plate (Greiner-bio-one through VWR, NJ), in the presence or absence of a concentration range of test compounds. After 3 days, […] Cell Titer-GLO Luminescent (Promega, Madison, Wis.) cell culture agent is added to each well for 10 min. at room temperature to stabilize the luminescent signal. This determines the number of viable cells in culture based on quantitation of the ATP present, which signals the presence of metabolically active cells. Luminescence is measured with the Top Count 384 (Packard Bioscience through Perkin Elmer, Boston, Mass.). Compound inhibition is determined relative to cells cultured with no drug and the IC50 reported as the compound concentration required for 50% cell death.
structure (smiles),measurement,setting,value
"Cc1noc(C)c1-c1ccc2nc(N3CCC(NC(=O)C(C)(C)C)CC3)n3c2c1OC[C@@H]3c1ccccn1 [Example 11, N-{1-[(4S)-7-(3,5-dimethylisoxazol-4-yl)-4-pyridin-2-yl-4,5-dihydroimidazo[1,5,4-de][1,4]benzoxazin-2-yl]piperidin-4-yl}-2,2-dimethylpropanamide]",IC50,[1],≤ 100 nM
same,IC50,[2],≤ 100 nM
"Cc1noc(C)c1-c1ccc2nc(N3CCC(N(C)C(=O)C(C)C)CC3)n3c2c1OC[C@@H]3c1ccccn1 [Example 17, N-{1-[(4S)-7-(3,5-dimethylisoxazol-4-yl)-4-pyridin-2-yl-4,5-dihydroimidazo[1,5,4-de][1,4]benzoxazin-2-yl]piperidin-4-yl}-N,2-dimethylpropanamide]",IC50,[1],≤ 100 nM
same,IC50,[2],≤ 100 nM
"Cc1noc(C)c1-c1ccc2nc(N3CCN(C(=O)C(C)(C)C)CC3)n3c2c1OC[C@@H]3c1ccccn1 [Example 26, (4S)-7-(3,5-dimethylisoxazol-4-yl)-2-[4-(2,2-dimethylpropanoyl)piperazin-1-yl]-4-pyridin-2-yl-4,5-dihydroimidazo[1,5,4-de][1,4]benzoxazine]",IC50,[1],≤ 100 nM
same,IC50,[2],≤ 100 nM
"CCS(=O)(=O)NC1CCN(c2nc3ccc(-c4c(C)noc4C)c4c3n2[C@@H](c2ccccn2)CO4)CC1 [Example 14, N-{1-[(4S)-7-(3,5-dimethylisoxazol-4-yl)-4-pyridin-2-yl-4,5-dihydroimidazo[1,5,4-de][1,4]benzoxazin-2-yl]piperidin-4-yl}ethanesulfonamide]",IC50,[1],≤ 100 nM
same,IC50,[2],≤ 100 nM
"Cc1noc(C)c1-c1ccc2nc(N3CCC(N(C)C(=O)C4CCC4)CC3)n3c2c1OC[C@@H]3c1ccccn1 [Example 20, N-{1-[(4S)-7-(3,5-dimethylisoxazol-4-yl)-4-pyridin-2-yl-4,5-dihydroimidazo[1,5,4-de][1,4]benzoxazin-2-yl]piperidin-4-yl}-N-methylcyclobutanecarboxamide]",IC50,[1],100 to 1000 nM
same,IC50,[2],≤ 100 nM
"Cc1noc(C)c1-c1ccc2nc(N3CCC(N(C)C(=O)C(C)(C)C)CC3)n3c2c1OC[C@@H]3c1ccccn1 [Example 18, N-{1-[(4S)-7-(3,5-dimethylisoxazol-4-yl)-4-pyridin-2-yl-4,5-dihydroimidazo[1,5,4-de][1,4]benzoxazin-2-yl]piperidin-4-yl}-N,2,2-trimethylpropanamide]",IC50,[1],≤ 100 nM
same,IC50,[2],≤ 100 nM
"Cc1noc(C)c1-c1ccc2nc(N3CCN(C(=O)C(C)C)CC3)n3c2c1OC[C@@H]3c1ccccn1 [Example 1, (4S)-7-(3,5-Dimethylisoxazol-4-yl)-2-(4-isobutyrylpiperazin-1-yl)-4-pyridin-2-yl-4,5-dihydroimidazo[1,5,4-de][1,4]benzoxazine]",IC50,[1],≤ 100 nM
same,IC50,[2],≤ 100 nM
"CC(=O)N(C)C1CCN(c2nc3ccc(-c4c(C)noc4C)c4c3n2[C@@H](c2ccccn2)CO4)CC1 [Example 6, N-{1-[(4S)-7-(3,5-dimethylisoxazol-4-yl)-4-pyridin-2-yl-4,5-dihydroimidazo[1,5,4-de][1,4]benzoxazin-2-yl]piperidin-4-yl}-N-methylacetamide]",IC50,[1],≤ 100 nM
same,IC50,[2],≤ 100 nM
"CCCC(=O)N(C)C1CCN(c2nc3ccc(-c4c(C)noc4C)c4c3n2[C@@H](c2ccccn2)CO4)CC1 [Example 16, N-{1-[(4S)-7-(3,5-dimethylisoxazol-4-yl)-4-pyridin-2-yl-4,5-dihydroimidazo[1,5,4-de][1,4]benzoxazin-2-yl]piperidin-4-yl}-N-methylbutanamide]",IC50,[1],≤ 100 nM
same,IC50,[2],≤ 100 nM
"CC(=O)N1CCN(c2nc3ccc(-c4c(C)noc4C)c4c3n2[C@@H](c2ccccn2)CO4)C[C@@H]1C [Example 7, (4S)-2-[(3S)-4-acetyl-3-methylpiperazin-1-yl]-7-(3,5-dimethylisoxazol-4-yl)-4-pyridin-2-yl-4,5-dihydroimidazo[1,5,4-de][1,4]benzoxazine]",IC50,[1],≤ 100 nM
same,IC50,[2],≤ 100 nM
"CCC(=O)N1CCN(c2nc3ccc(-c4c(C)noc4C)c4c3n2[C@@H](c2ccccn2)CO4)C[C@@H]1C [Example 8, (4S)-7-(3,5-dimethylisoxazol-4-yl)-2-[(3S)-3-methyl-4-propionylpiperazin-1-yl]-4-pyridin-2-yl-4,5-dihydroimidazo[1,5,4-de][1,4]benzoxazine]",IC50,[1],≤ 100 nM
same,IC50,[2],≤ 100 nM
"CCCC(=O)N1CCN(c2nc3ccc(-c4c(C)noc4C)c4c3n2[C@@H](c2ccccn2)CO4)CC1 [Example 25, (4S)-2-(4-butyrylpiperazin-1-yl)-7-(3,5-dimethylisoxazol-4-yl)-4-pyridin-2-yl-4,5-dihydroimidazo[1,5,4-de][1,4]benzoxazine]",IC50,[1],≤ 100 nM
same,IC50,[2],≤ 100 nM
"COCC(=O)N1CCN(c2nc3ccc(-c4c(C)noc4C)c4c3n2[C@@H](c2ccccn2)CO4)CC1 [Example 29, (4S)-7-(3,5-dimethylisoxazol-4-yl)-2-[4-(methoxyacetyl)piperazin-1-yl]-4-pyridin-2-yl-4,5-dihydroimidazo[1,5,4-de][1,4]benzoxazine]",IC50,[1],≤ 100 nM
same,IC50,[2],≤ 100 nM
"CC(=O)N1CCN(c2nc3ccc(-c4c(C)noc4C)c4c3n2[C@@H](c2ccccn2)CO4)[C@@H](C)C1 [Example 3, (4S)-2-[(2S)-4-acetyl-2-methylpiperazin-1-yl]-7-(3,5-dimethylisoxazol-4-yl)-4-pyridin-2-yl-4,5-dihydroimidazo[1,5,4-de][1,4]benzoxazine]",IC50,[1],≤ 100 nM
same,IC50,[2],≤ 100 nM
"CCCC(=O)NC1CCN(c2nc3ccc(-c4c(C)noc4C)c4c3n2[C@@H](c2ccccn2)CO4)CC1 [Example 10, N-{1-[(4S)-7-(3,5-dimethylisoxazol-4-yl)-4-pyridin-2-yl-4,5-dihydroimidazo[1,5,4-de][1,4]benzoxazin-2-yl]piperidin-4-yl}butanamide]",IC50,[1],≤ 100 nM
same,IC50,[2],≤ 100 nM
"Cc1noc(C)c1-c1ccc2nc(N3CCC(N(C)S(C)(=O)=O)CC3)n3c2c1OC[C@@H]3c1ccccn1 [Example 22, N-{1-[(4S)-7-(3,5-dimethylisoxazol-4-yl)-4-pyridin-2-yl-4,5-dihydroimidazo[1,5,4-de][1,4]benzoxazin-2-yl]piperidin-4-yl}-N-methylmethanesulfonamide]",IC50,[1],≤ 100 nM
same,IC50,[2],≤ 100 nM
Cc1noc(C)c1-c1ccc2nc(N3CCC(NC(=O)C4CC4)CC3)n3c2c1OC[C@@H]3c1ccccn1 [Example 12],IC50,[1],≤ 100 nM
same,IC50,[2],≤ 100 nM
"Cc1noc(C)c1-c1ccc2nc(N3CCC(NC(=O)C4CCC4)CC3)n3c2c1OC[C@@H]3c1ccccn1 [Example 13, N-{1-[(4S)-7-(3,5-dimethylisoxazol-4-yl)-4-pyridin-2-yl-4,5-dihydroimidazo[1,5,4-de][1,4]benzoxazin-2-yl]piperidin-4-yl}cyclobutanecarboxamide]",IC50,[1],≤ 100 nM
same,IC50,[2],≤ 100 nM
"CCC(=O)N(C)C1CCN(c2nc3ccc(-c4c(C)noc4C)c4c3n2[C@@H](c2ccccn2)CO4)CC1 [Example 15, N-{1-[(4S)-7-(3,5-dimethylisoxazol-4-yl)-4-pyridin-2-yl-4,5-dihydroimidazo[1,5,4-de][1,4]benzoxazin-2-yl]piperidin-4-yl}-N-methylpropanamide]",IC50,[1],≤ 100 nM
same,IC50,[2],≤ 100 nM

# — patent publication US10227359B2, “Tricyclic heterocycles as bet protein inhibitors” (Incyte Corporation, priority 2014, dated 2019)
